Values quoted from earlier work, collected in patent US10927398B2, “Compositions for CYP450 phenotyping using saliva samples” (Concordia University, Inc., priority 2015, dated 2021).
Read-outs that look alike come from different tables or passages of the source.

Columns and labels:
plasma protein = settings: cited from earlier work
[1] = cited from earlier work
[2] = cited from earlier work; remark: listed apart in the source
[3] = Table of Exemplary Drugs, CYP2D6
[4] = Table of Exemplary Drugs, CYP1A2
[5] = Table of Exemplary Drugs, CYP3A4
[6] = Table of Exemplary Drugs, CYP2C19
[7] = Table of Exemplary Drugs, CYP2C9

| Compound | PLASMA PROTEIN BINDING (plasma protein; [3]) | ORAL BIOAVAILABILITY [1, 3] | HALF-LIFE [2, 3] [h] | PLASMA PROTEIN BINDING (plasma protein; [5]) | ORAL BIOAVAILABILITY [1, 5] | HALF-LIFE [2, 5] [h] | further results |
| --- | --- | --- | --- | --- | --- | --- | --- |
| CCC1(c2ccccc2)C(=O)NC(=O)N(C)C1=O (stereo not drawn) [Methylphenobarbital] | – | – | – | – | – | – | PLASMA PROTEIN BINDING (plasma protein; plasma): 70-76% ^; ORAL BIOAVAILABILITY ([1]; in vivo, po): 50%; HALF-LIFE ([2]; in vivo): 31 to 67 h |
| COCCc1ccc(OCC(O)CNC(C)C)cc1 (stereo not drawn) [Metoprolol] | 12% | 77% | 3 to 7 | – | – | – | – |
| Cc1cccc(C)c1OCC(C)N (stereo not drawn) [Mexiletine] | 50-70% ^ | 80-90% | 6 to 17 | – | – | – | PLASMA PROTEIN BINDING (plasma protein; [4]): 50-60% ^; ORAL BIOAVAILABILITY [1, 4]: 90%; HALF-LIFE [2, 4]: 10 to 12 h |
| CN1CCN2c3ccccc3Cc3ccccc3C2C1 (stereo not drawn) [Mianserin] | 90% | 20-30% | 1.4 | – | – | – | – |
| Cc1ncc2n1-c1ccc(Cl)cc1C(c1ccccc1F)=NC2 [Midazolam (Versed), Midazolam] | – | – | – | 97% | – | – | ORAL BIOAVAILABILITY ([1]; in vivo, po): PO: 36%; HALF-LIFE ([2]; in vivo): 3 to 6 h |
| CC#C[C@]1(O)CC[C@H]2[C@@H]3CCC4=CC(=O)CCC4=C3[C@@H](c3ccc(N(C)C)cc3)C[C@@]21C [Mifepristone (Mifeprex), Mifepristone] | – | – | – | 99.2%^ | 69% | 20 to 85 | – |
| O=C(NCCN1CCOCC1)c1ccc(Cl)cc1 [Moclobemide] | – | – | – | – | – | – | PLASMA PROTEIN BINDING (plasma protein; [6]): 50%; ORAL BIOAVAILABILITY [1, 6]: 55-95%; HALF-LIFE [2, 6]: 2 h |
| CC(C)[C@H]1CC[C@H](C(=O)N[C@H](Cc2ccccc2)C(=O)O)CC1 [Nateglinide] | – | – | – | – | – | – | PLASMA PROTEIN BINDING (plasma protein; [7]): 98%; ORAL BIOAVAILABILITY [1, 7]: 73%; HALF-LIFE [2, 7]: 1.5 h |
| OC(CNCC(O)C1CCc2cc(F)ccc2O1)C1CCc2cc(F)ccc2O1 (stereo not drawn) [Nebivolol] | 98% | 12-96% | 12 to 19 | – | – | – | – |
| CCc1nn(CCCN2CCN(c3cccc(Cl)c3)CC2)c(=O)n1CCOc1ccccc1 [Nefazodone] | – | – | – | >99% | 20% | 2 to 4 | – |
| Cc1ccnc2c1NC(=O)c1cccnc1N2C1CC1 [Nevirapine (Viramune), Nevirapine] | – | – | – | 60% | 80-94% | 25 to 45 | – |
| COC(=O)C1=C(C)NC(C)=C(C(=O)OCC(C)C)C1c1ccccc1[N+](=O)[O-] (stereo not drawn) [Nisoldipine (Sular), Nisoldipine] | – | – | – | 99% | 5% | 13.7 | – |
| CCOC(=O)C1=C(C)NC(C)=C(C(=O)OC)C1c1cccc([N+](=O)[O-])c1 (stereo not drawn) [Nitrendipine (Baypress), Nitrendipine] | – | – | – | 97-99% ^ | 23% | 2 to 24 | – |
| Cc1nccn1CC1CCc2c(c3ccccc3n2C)C1=O (stereo not drawn) [Ondansetron] | 70-76% ^ | 56% | 3 to 6.2 | – | – | – | PLASMA PROTEIN BINDING (plasma protein; [4]): 70-76% ^; ORAL BIOAVAILABILITY [1, 4]: 100%; HALF-LIFE [2, 4]: 3 to 6 h |
| COc1ccc2c3c1O[C@H]1C(=O)CC[C@@]4(O)[C@@H](C2)N(C)CC[C@]314 [Oxycodone] | 45% | 60-87% | 5.6 | 45% | 60-87% | 5.6 | – |
| CC(=O)O[C@H]1C(=O)[C@@]2(C)[C@H]([C@H](OC(=O)c3ccccc3)[C@]3(O)C[C@H](OC(=O)[C@H](O)[C@@H](NC(=O)c4ccccc4)c4ccccc4)C(C)=C1C3(C)C)[C@]1(OC(C)=O)CO[C@@H]1C[C@@H]2O [Paclitaxel (Taxol), Paclitaxel] | – | – | – | 89-98% ^ | 6.50% | 13.1 to 52.7 | – |
| COc1ccnc(C[S+]([O-])c2nc3ccc(OC(F)F)cc3[nH]2)c1OC (stereo not drawn) [Pantoprazole] | – | – | – | – | – | – | PLASMA PROTEIN BINDING (plasma protein; [6]): 98%; ORAL BIOAVAILABILITY [1, 6]: 77%; HALF-LIFE [2, 6]: 1 h |
| CC(=O)Nc1ccc(O)cc1 [Paracetamol] | – | – | – | – | – | – | PLASMA PROTEIN BINDING (plasma protein; [4]): 10-25% ^; ORAL BIOAVAILABILITY [1, 4]: 85-98%; HALF-LIFE [2, 4]: 1 to 4 h |
| [H]/N=C(/N)N/C(=N/[H])NCCc1ccccc1 [Phenformin] | 12-20% ^ | 40-60% | 4 to 13 | – | – | – | – |
| CCC1(c2ccccc2)C(=O)NC(=O)NC1=O [Phenobarbital] | – | – | – | – | – | – | PLASMA PROTEIN BINDING (plasma protein; plasma): 20-60% ^; ORAL BIOAVAILABILITY ([1]; in vivo, po): 80-100%; HALF-LIFE ([2]; in vivo): 36 to 120 h |
| O=C1NC(=O)C(c2ccccc2)(c2ccccc2)N1 [Phenytoin] | – | – | – | – | – | – | PLASMA PROTEIN BINDING (plasma protein; [7]): 88-93% ^; PLASMA PROTEIN BINDING (plasma protein; [6]): 88-93% ^; ORAL BIOAVAILABILITY [1, 7]: 20-90%; ORAL BIOAVAILABILITY [1, 6]: 20-90%; HALF-LIFE [2, 7]: 14 to 22 h; HALF-LIFE [2, 6]: 14 to 22 h |
